How the values were obtained:
[1] = system: human cervical epithelial cells of the HeLa line; experiment: Resazurin cell proliferation test, HeLa cells; assay type: cell-based; details: cervical cancer cells; IC50 equal to and greater than 100 μM considered no activity
From the text: For cell culture, human cervical epithelial cells of the HeLa line, human epithelial pancreatic adenocarcinoma cells of the BxPC-3 line and healthy Madin-Darby canine kidney epithelial cells of the MDCK line were used in this study. The Resazurin cell proliferation test was applied according to the literature (S. Anoopkumar-Dukie, J. B. Carey, T. Conere, E. O'Sullivan, F. N. van Pelt, A. Allshire, Br J Radiol 2005, 78, 945, DOI: 10.1259/bjr/54004230). As an indicator of the effectiveness of the experimental compounds on cell proliferation, the median inhibitory concentration (IC50) was used. The lower the IC50 value, the higher the activity (in this case, the cytotoxicity).
Five formula I complexes were tested in this study in comparison to two reference anti-cancer compounds (“Cisplatin” and Doxorubicin complex).

[2] = system: Varroa destructor; experiment: 1st test in hives: degree of infestation with Varroa; assay type: in vivo; details: for Degree of infestation with Varroa / Degree of infestation with Varroa, change versus batch I: overall dose 2 mg per colony; for Degree of infestation with Varroa: 100 = 1.78 mite/10 g of bees; for Degree of infestation with Varroa, change versus batch I: value in brackets
Method: Biological field tests were performed on families of European domestic bees of the species Apis mellifera […] experimental apiary located in the […] forestry district (Republic of Moldova). Feeding with the complex of the invention took place in spring. The biological tests were monitored up to the month of September. To administer the compounds to the bees, a very small amount of bioactive substance was added to two types of sugary feeding products for bees: candy in the form of a paste (70% sucrose, 30% honey) or syrup (50% sucrose, 50% water). The bees were fed by adding the candy/syrup to the feeder located in the inner upper part of the hive. The volume of syrup was adjusted based on the number of bee frames at the initial time, more precisely 200 g of candy per frame and 100 mL of syrup per frame, that is 2 kg of candy and 1 L of syrup per hive of 10 frames. For the first feeding step, candy in the form of a paste was only given once. […] From the start of the test to the end (after the second harvest), all the bees were monitored for several key morpho-producing parameters that reflect the development level of the colony and the vital aspects of the bees. The parameters studied are: the prolificity of the queen (fertility), the power of the colonies, the production of honey and the production of wax. These parameters were monitored in line with the zootechnical standards concerning the assessment of bee families, breeding and certification of beekeeping parental material approved by government decision No. 306 dated Apr. 28, 2011 of the Republic of Moldova. The assessment consists in counting the number of Varroa on a sample of adult bees. The value from this count is used as an index for monitoring the level of parasitism in the colony. The method uses icing sugar and a “shaker” jar made of transparent glass with a capacity of 1 kg. The cover is a mesh made of galvanized steel of the type placed at the bottom of the hive, with a mesh size of 3 mm. The mesh allows Varroa mites to pass through but retains the honey bees. The method is implemented according to the following steps: 40 to 50 g of honey bees are collected in the jar (approximately 400 bees), 100 g of icing sugar is added and the shaker jar is rolled for 1 minute so as to cover every bee in icing sugar. The icing sugar then makes it possible to separate the Varroa mites from the body of the host bee so that they drop off. Leave to rest for 1 minute: bees have a delousing behavior, which helps the Varroa mites to drop off. The icing sugar is sieved over a sieve which makes it possible to retain the Varroa mites and then count them. The result is given as the number of mites per 10 g of bees (approximately 100 bees) and can be expressed as a %. This rate is indicative of the Varroa burden in the colony. […] A moderate rate is between 2 and 5 and, in this case, treatment of the colonies must be scheduled. Finally, a rate greater than 5, requires emergency treatment of the colony. Our tests give a result of around 2% for worker bees. The molecules tested, their concentration in solution and their annual overall doses are listed below: • 1. […] The concentration of the complex in the syrup: 1.5×10^-7 mol/L. Overall and annual product dose: 2 mg of complex per colony • 2. […] The concentration of the complex in syrup: 3.0×10^-7 mol/L. Overall and annual product dose: 2 mg of complex per colony • 3. […] Overall and annual product dose: 2 mg of complex per colony • 4. LiCH3COO·H2O as a positive control, abbreviated as Li-Ac • The feeding is carried out with 2000 g of candy containing 0.8 mg of positive control product, then 6 to 7 L of syrup containing 0.2 mg/L of positive control product. The concentration of the product in syrup: 2.36×10^-6 mol/L that is 1.67×10^-5 g/L. Overall and annual product dose: 2 mg of product per colony

[3] = system: Varroa destructor; experiment: 2nd test in the hives: degree of infestation of bees with Varroa; assay type: in vivo; details: for Degree of infestation with Varroa: 100 = 2.32 mite/10 g of bees; for Degree of infestation with Varroa, change versus batch I: value in brackets
From the text: The assessment consists in counting the number of Varroa on a sample of adult bees. The value from this count is used as an index for monitoring the level of parasitism in the colony. The method uses icing sugar and a “shaker” jar made of transparent glass with a capacity of 1 kg. The cover is a mesh made of galvanized steel of the type placed at the bottom of the hive, with a mesh size of 3 mm. The mesh allows Varroa mites to pass through but retains the honey bees. The method is implemented according to the following steps: 40 to 50 g of honey bees are collected in the jar (approximately 400 bees), 100 g of icing sugar is added and the shaker jar is rolled for 1 minute so as to cover every bee in icing sugar. The icing sugar then makes it possible to separate the Varroa mites from the body of the host bee so that they drop off. Leave to rest for 1 minute: bees have a delousing behavior, which helps the Varroa mites to drop off. The icing sugar is sieved over a sieve which makes it possible to retain the Varroa mites and then count them. The result is given as the number of mites per 10 g of bees (approximately 100 bees) and can be expressed as a %. This rate is indicative of the Varroa burden in the colony. […] A moderate rate is between 2 and 5 and, in this case, treatment of the colonies must be scheduled. Finally, a rate greater than 5, requires emergency treatment of the colony. Our tests give a result of around 2% for worker bees. The 2nd test was performed in the same apiary the following year. Feeding with the complex of the invention took place in spring. The biological tests were monitored up to the month of September. The molecules tested, their concentration in solution and their annual overall doses are listed below: • 1. […] The concentration of the complex in syrup: 1.5×10^-7 mol/L. Overall product dose: 2 mg/colony • 2. […] Overall complex dose: 6 mg/colony • 4. LiCH3COO·H2O for comparison, abbreviated as Li-Ac • The feeding is carried out with 2000 g of candy containing 0.8 mg of product then 6 to 7 L of syrup containing 0.2 mg/L of product. The concentration of product in the syrup: 2.36×10^-6 mol/L that is 1.67×10^-5 g/L. Overall product dose: 2 mg/colony

| SMILES | IC50 [1] [µM] | Degree of infestation with Varroa [2] | Degree of infestation with Varroa, change versus batch I [2] [%] | Degree of infestation with Varroa ([3]; overall dose 2 mg/hive) | Degree of infestation with Varroa, change versus batch I ([3]; overall dose 2 mg/hive) [%] | IC50, HeLa [1] | Protective effect against the infestation of bees by Varroa destructor ([2]; 1st test, 2 mg per colony, relative to untreated batch I, Li complex at a lithium concentration almost 4 times lower than Li—Ac) | Degree of infestation with Varroa ([3]; overall dose 6 mg/hive) | Degree of infestation with Varroa, change versus batch I ([3]; overall dose 6 mg/hive) [%] |
| --- | --- | --- | --- | --- | --- | --- | --- | --- | --- |
| O=C([O-])CN(CCN(CC(=O)[O-])CC(=O)[O-])CC(=O)[O-].[O]=[Mo+]12[O][Mo+]1(=[O])[O]2.c1ccc([P+](c2ccccc2)(c2ccccc2)c2ccccc2)cc1.c1ccc([P+](c2ccccc2)(c2ccccc2)c2ccccc2)cc1 [PPh4—Mo2O4-EDTA, (PPh4)2[Mo2O4 (EDTA)]·2.5H2O] | ≥ 100 | 78.7 % relative to batch I | −21.3 | 60.8 % relative to batch I | −39.2 | – | – | – | – |
| CC(=O)[O-].[Li+] [Li—Ac, LiCH3COO·H2O, reference compound] | – | 58.4 % relative to batch I | −41.6 | 69.0 % relative to batch I | −31 | – | – | – | – |
| O.O.O.O.O.O.O=C([O-])CN(CCN(CC(=O)[O-])CC(=O)[O-])CC(=O)[O-].[Li+].[Li+].[O]=[Mo+]12[O][Mo+]1(=[O])[O]2 [Li—Mo2O4-EDTA, Li2[Mo2O4 (EDTA)]·6H2O] | – | 57.3 % relative to batch I | −42.7 | 52.6 % relative to batch I | −47.4 | Inactive | protective capacity comparable to that of the lithium acetate | 38.4 % relative to batch I | −62.6 |
| O.O.O.O.O.O=C([O-])CN(CCN(CC(=O)[O-])CC(=O)[O-])CC(=O)[O-].[Na+].[Na+].[O]=[Mo+]12[O][Mo+]1(=[O])[O]2 [Na—Mo2O4-EDTA, Na2[Mo2O4 (EDTA)]·5H2O] | – | 86.5 % relative to batch I | −13.5 | – | – | Inactive | – | – | – |

Reference: patent US12582721B2, “Molybdenum-based feed supplement for bees” (UNIVERSITE DE VERSAILLES—SAINT-QUENTIN-EN-YVELINES, priority 2020, dated 2026)
